Data on two molecules can be found in patent publication US20230085307A1, “PYRIDAZINONE COMPOUND AND HERBICIDE” (NISSAN CHEMICAL CORPORATION, priority 2019, published 2023).

The structures appear in SMILES notation.

One experiment concerns green foxtail. In words: Test Example 5: herbicidal effect by foliage application, plastic box (Table 20, symbol G). To be noted: foliage application, three weeks after application. Type of experiment: in vivo, green foxtail (Setaria viridis). The procedure, abridged:
(§1)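 Foliar spray test: emulsion formulation diluted in water to a set application rate, sprayed onto 14-day-old plants raised in diluvial soil at 25° C to 30° C under glass. Both herbicidal effect and crop effect rated visually three weeks later.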

Experiment [1] deals with redroot pigweed. In words: Test Example 5: herbicidal effect by foliage application, plastic box (Table 20, symbol N). The conditions noted are these: foliage application, three weeks after application. In kind it is in vivo, redroot pigweed (Amaranthus retroflexus). The procedure, abridged: as §1
Experiment [2] deals with barnyard grass. In words: Test Example 3: herbicidal effect by foliage application, Wagner pot (Table 18, symbol H). Type of experiment: in vivo, barnyard grass (Echinochloa crus-galli). The procedure, abridged: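 Plants were sown in alluvial soil held under 0.1–0.5 cm standing water and grown 14 days in a greenhouse at 25–30 °C. An emulsifiable formulation, water-diluted to the set dose, was then sprayed onto the foliage, and effects were scored three weeks later using previously defined criteria.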

The next experiment relates to oval-leafed pondweed. In words: Test Example 1: herbicidal activity, application before weed generation under submerged conditions (Table 16, symbol C). In kind it is in vivo, oval-leafed pondweed (Monochoria vaginalis). The procedure, abridged:
(§2)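 Alluvial soil was flooded to 4 cm depth, weed seeds were sown mixed and 2.5-leaf rice seedlings were transplanted. On sowing day, the compound's emulsion, diluted in water to a set dose, was applied to the water surface. Plants grew at 25–30 °C and were scored 0–5 after three weeks.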

Experiment [3] has as its system redroot pigweed. The experiment is described as follows: Test Example 4: herbicidal effect by soil treatment (Table 19, symbol N). Type of experiment: in vivo, redroot pigweed (Amaranthus retroflexus). The procedure, abridged:
(§3)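 Step 1: sow seeds in sterilized diluvial soil, cover ~1.5 cm. Step 2: spray diluted emulsion onto soil surface at predetermined rate. Step 3: greenhouse, 25–30° C, three weeks. Step 4: grade effect on each plant by earlier criteria.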

In experiment [4] the test system is blackgrass. The experiment is described as follows: Test Example 5: herbicidal effect by foliage application, plastic box (Table 20, symbol J). Type of experiment: in vivo, blackgrass (Alopecurus myosuroides). To be noted: foliage application, three weeks after application. The procedure, abridged: as §1
For experiment [5], the system named is southern crabgrass. The experiment is described as follows: Test Example 4: herbicidal effect by soil treatment (Table 19, symbol F). In kind it is in vivo, southern crabgrass (Digitaria ciliaris). The procedure, abridged:
as §3

In a further experiment the test system is chickweed. The experiment is described as follows: Test Example 4: herbicidal effect by soil treatment (Table 19, symbol P). In kind it is in vivo, common chickweed (Stellaria media). The procedure, abridged:
as §3

In experiment [6] the test system is southern crabgrass. In words: Test Example 5: herbicidal effect by foliage application, plastic box (Table 20, symbol F). Type of experiment: in vivo, southern crabgrass (Digitaria ciliaris). The conditions noted are these: foliage application, three weeks after application. The procedure, abridged: as §1
A further experiment relates to late watergrass. In words: Test Example 2: herbicidal activity, application during weed generation under submerged conditions (Table 17, symbol A). Type of experiment: in vivo, late watergrass (Echinochloa oryzicola). To be noted: application during weed generation, submerged conditions. The procedure, abridged: (§4)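 Mixed weed seedlings in alluvial soil under a 4 cm water layer, greenhouse-grown at 25–30° C. Compound given as a diluted emulsion into the floodwater at the 1–2 leaf stage; response graded after three weeks.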

For experiment [7], the system named is Japanese bulrush. The experiment is described as follows: Test Example 1: herbicidal activity, application before weed generation under submerged conditions (Table 16, symbol B). Type of experiment: in vivo, Japanese bulrush (Schoenoplectus juncoides). The procedure, abridged:
as §2

Another experiment relates to wild oat. The experiment is described as follows: Test Example 5: herbicidal effect by foliage application, plastic box (Table 20, symbol I). In kind it is in vivo, wild oat (Avena fatua). The conditions noted are these: foliage application, three weeks after application. The procedure, abridged: as §1
Another experiment has as its system lambsquarters. The experiment is described as follows: Test Example 5: herbicidal effect by foliage application, plastic box (Table 20, symbol O). Type of experiment: in vivo, lambsquarters (Chenopodium album). To be noted: foliage application, three weeks after application. The procedure, abridged:
as §1

A further experiment concerns persian speedwell. In words: Test Example 5: herbicidal effect by foliage application, plastic box (Table 20, symbol R). To be noted: foliage application, three weeks after application. In kind it is in vivo, Persian speedwell (Veronica persica). The procedure, abridged:
as §1

The test system of experiment [8] is blackgrass. In words: Test Example 4: herbicidal effect by soil treatment (Table 19, symbol J). In kind it is in vivo, blackgrass (Alopecurus myosuroides). The procedure, abridged: as §3
Experiment [9] relates to Japanese bulrush. The experiment is described as follows: Test Example 2: herbicidal activity, application during weed generation under submerged conditions (Table 17, symbol B). In kind it is in vivo, Japanese bulrush (Schoenoplectus juncoides). To be noted: application during weed generation, submerged conditions. The procedure, abridged:
as §4

Experiment [10] deals with barnyard grass. In words: Test Example 4: herbicidal effect by soil treatment (Table 19, symbol H). In kind it is in vivo, barnyard grass (Echinochloa crus-galli). The procedure, abridged: as §3
The mark [11] stands for this setting: amount of applied herbicide 296 g/ha.
The mark [12] stands for this setting: amount of applied herbicide 320 g/ha.

As for `CCCC(=O)Oc1c(C)nn(C)c(=O)c1-c1c(-c2ccccc2OC)sc2cc(OC)ccc12` [Compound No. 3-066, 5-(6-methoxy-2-(2-methoxyphenyl)benzo[b]thiophen-3-yl)-1,3-dimethyl-6-oxo-1,6-dihydropyridazin-4-yl=(n-butyrate)], the “G: green foxtail, herbicidal effect grade” value with green foxtail (296 g/ha) is 4 (Herbicidal rate of 70% or more and less than 90%). Also, the results for the “N: redroot pigweed, herbicidal effect grade” value in the experiment with redroot pigweed [1] (296 g/ha) and in the experiment with redroot pigweed [3] (setting [11]) were 5 (Herbicidal rate of 90% or more (almost completely withered)) and 0 (Herbicidal rate of 5% or less (almost no effect)), respectively. Also, the “herbicidal effect on barnyard grass (H)” value in the experiment on barnyard grass [2] (296 g/ha) is recorded as 5 (Herbicidal rate of 90% or more (almost completely withered)). Also, the “Herbicidal effect, C: oval-leafed pondweed” value with oval-leafed pondweed (setting [11]) is 5 (Herbicidal rate of 90% or more (almost completely withered)). Further, the “J: blackgrass, herbicidal effect grade” value in the experiment with blackgrass [4] (296 g/ha) was 4 (Herbicidal rate of 70% or more and less than 90%); with blackgrass [8] (setting [11]), 3 (Herbicidal rate of 40% or more and less than 70%). The “F: southern crabgrass, herbicidal effect grade” value was 0 (Herbicidal rate of 5% or less (almost no effect)) in the experiment with southern crabgrass [5] (setting [11]); 4 (Herbicidal rate of 70% or more and less than 90%) in the experiment on southern crabgrass [6] (296 g/ha). The “P: chickweed, herbicidal effect grade” value in the experiment with chickweed (setting [11]) was 4 (Herbicidal rate of 70% or more and less than 90%). Further, in the experiment on late watergrass (AAH 296 g/ha), the “herbicidal effect rating, A: late watergrass” value was 3 (Herbicidal rate of 40% or more and less than 70%). In the experiment with Japanese bulrush [7] (setting [11]), the “Herbicidal effect, B: Japanese bulrush” value was 5 (Herbicidal rate of 90% or more (almost completely withered)). In the experiment with wild oat (296 g/ha), the “I: wild oat, herbicidal effect grade” value is 3 (Herbicidal rate of 40% or more and less than 70%). The “O: lambsquarters, herbicidal effect grade” value in the experiment with lambsquarters (296 g/ha) was 5 (Herbicidal rate of 90% or more (almost completely withered)). Besides, in the experiment with persian speedwell (296 g/ha), the “R: persian speedwell, herbicidal effect grade” value was 1 (Herbicidal rate of 5% or more and less than 20%). In addition, in the experiment on Japanese bulrush [9] (AAH 296 g/ha), the “herbicidal effect rating, B: Japanese bulrush” value is 4 (Herbicidal rate of 70% or more and less than 90%). Besides, the “H: barnyard grass, herbicidal effect grade” value in the experiment with barnyard grass [10] (setting [11]) is listed as 0 (Herbicidal rate of 5% or less (almost no effect)).

As to `CCCC(=O)Oc1c(C)nn(C)c(=O)c1-c1c(-c2ccc(OC(C)C)cc2)sc2cc(F)ccc12` [3-020], the “G: green foxtail, herbicidal effect grade” value with green foxtail (320 g/ha) is 0 (Herbicidal rate of 5% or less (almost no effect)). Also, in the experiment with redroot pigweed [1] (320 g/ha), the “N: redroot pigweed, herbicidal effect grade” value was 4 (Herbicidal rate of 70% or more and less than 90%). In addition, in the experiment with barnyard grass [2] (setting [12]), the “herbicidal effect on H: barnyard grass” value is 4 (Herbicidal rate of 70% or more and less than 90%). Besides, the “Herbicidal effect, C: oval-leafed pondweed” value with oval-leafed pondweed (setting [12]) was 2 (Herbicidal rate of 20% or more and less than 40%). The “herbicidal effect, N: redroot pigweed” value with redroot pigweed [3] (setting [12]) is 4 (Herbicidal rate of 70% or more and less than 90%). For the same molecule, the “J: blackgrass, herbicidal effect grade” value in the experiment on blackgrass [4] (320 g/ha) was 2 (Herbicidal rate of 20% or more and less than 40%). The “herbicidal effect, F: southern crabgrass” value in the experiment with southern crabgrass [5] (setting [12]) was 0 (Herbicidal rate of 5% or less (almost no effect)). The “herbicidal effect, P: chickweed” value with chickweed (setting [12]) is recorded as 0 (Herbicidal rate of 5% or less (almost no effect)). In addition, in the experiment with southern crabgrass [6] (320 g/ha), the “F: southern crabgrass, herbicidal effect grade” value is recorded as 0 (Herbicidal rate of 5% or less (almost no effect)). The “herbicidal effect rating, A: late watergrass” value in the experiment with late watergrass (AAH 320 g/ha) is 1 (Herbicidal rate of 5% or more and less than 20%). In the experiment with Japanese bulrush [7] (setting [12]), the “Herbicidal effect, B: Japanese bulrush” value was 3 (Herbicidal rate of 40% or more and less than 70%). Further, the “I: wild oat, herbicidal effect grade” value in the experiment with wild oat (320 g/ha) was 0 (Herbicidal rate of 5% or less (almost no effect)). In the experiment on lambsquarters (320 g/ha), the “O: lambsquarters, herbicidal effect grade” value is 3 (Herbicidal rate of 40% or more and less than 70%). Also, the “R: persian speedwell, herbicidal effect grade” value with persian speedwell (320 g/ha) is 5 (Herbicidal rate of 90% or more (almost completely withered)). For the same molecule, in the experiment on blackgrass [8] (setting [12]), the “herbicidal effect, J: blackgrass” value is given as 0 (Herbicidal rate of 5% or less (almost no effect)). Moreover, in the experiment on Japanese bulrush [9] (AAH 320 g/ha), the “herbicidal effect rating, B: Japanese bulrush” value is recorded as 0 (Herbicidal rate of 5% or less (almost no effect)). In addition, the “herbicidal effect, H: barnyard grass” value with barnyard grass [10] (setting [12]) is given as 0 (Herbicidal rate of 5% or less (almost no effect)).
